US20190239509A1, “METHOD OF CONTROLLING PLANTS” (SYNGENTA PARTICIPATIONS AG, priority 2016, published 2019)

Legend:
Type in all cases: in vivo
[1] = system: Digitaria horizontalis (DIGHO); assay: B3 drilled field trial Brazil, post-emergence, DIGHO; details: Summer season, 28 days after application
Description: (§1) Seeds of a variety of test species were used in drilled field trials to look at the control of important weed species present in corn crops as well as the effect on soybean (a volunteer crop in corn). Trials were carried out in Brazil in the summer season and the second season.
(§2) Plot size was 10-15 m^2, and two replicates were carried out per treatment. Plants were treated post-emergence between the 2 and 4 leaf stage. Species tested were Amaranthus retroflexus (AMARE), Ipomoea grandifolia (IAQGR), Digitaria horizontalis (DIGHO), Bidens pilosa (BIDPI), Eleusine indica (ELEIN), Brachiaria decumbens (BRADC), Centrus echinatus (CCHEC), Euphorbia heterophylla (EPPHL), Brachiaria plantaginea (BRAPL) and Glycine max (GLXMA; soybean). Fungicides and insecticides were used as necessary for plant health. The test was evaluated at 28 days after application with 100=total damage to plant and 0=no damage to plant.
(§3) Expected results were calculated using the Colby Formula.

[2] = system: Bidens pilosa (BIDPI); assay: B3 drilled field trial Brazil, post-emergence, BIDPI; details: 28 days after application
Description: as §1, §2, §3

[3] = system: Eleusine indica (ELEIN); assay: B3 drilled field trial Brazil, post-emergence, ELEIN; details: 28 days after application
Description: as §1, §2, §3

[4] = system: Brachiaria decumbens (BRADC); assay: B3 drilled field trial Brazil, post-emergence, BRADC; details: 28 days after application
Description: as §1, §2, §3

[5] = system: Centrus echinatus (CCHEC); assay: B3 drilled field trial Brazil, post-emergence, CCHEC; details: 28 days after application
Description: as §1, §2, §3

[6] = system: Euphorbia heterophylla (EPPHL); assay: B3 drilled field trial Brazil, post-emergence, EPPHL; details: Summer season, 28 days after application
Description: as §1, §2, §3

[7] = system: Brachiaria plantaginea (BRAPL); assay: B3 drilled field trial Brazil, post-emergence, BRAPL; details: Summer season, 28 days after application
Description: as §1, §2, §3

[8] = system: Glycine max (GLXMA; soybean); assay: B3 drilled field trial Brazil, post-emergence, soybean; details: 28 days after application
Description: as §1, §2, §3

Question: How did the “Observed damage (100=total damage to plant, 0=no damage)” value ([1]; 75 g ai/ha) turn out when `CCOC1C(O)N(c2cc(C(C)(C)C)on2)C(=O)N1C` (stereo not drawn) [Compound 1.4] was run?
Answer: Its value is 45.

Question: And the “Observed damage (100=total damage to plant, 0=no damage)” value ([1]; 100 g ai/ha)?
Answer: Its value is 45.

Question: And the “Observed damage (100=total damage to plant, 0=no damage)” value ([1]; 150 g ai/ha)?
Answer: The value was 69.

Question: And the “Observed damage (100=total damage to plant, 0=no damage)” value ([2]; Second season, 50 g ai/ha)?
Answer: Its value is 46.

Question: What about the “Observed damage (100=total damage to plant, 0=no damage)” value ([2]; Second season, 75 g ai/ha) of the same compound?
Answer: Its value is 46.

Question: What about the “Observed damage (100=total damage to plant, 0=no damage)” value ([2]; Second season, 100 g ai/ha) of the same compound?
Answer: Its value is 48.

Question: What about the “Observed damage (100=total damage to plant, 0=no damage)” value ([2]; Second season, 150 g ai/ha) of the same compound?
Answer: Its value is 60.

Question: What about the “Observed damage (100=total damage to plant, 0=no damage)” value ([2]; Summer season, 50 g ai/ha) of the same compound?
Answer: Its value is 18.

Question: What about the “Observed damage (100=total damage to plant, 0=no damage)” value ([2]; Summer season, 75 g ai/ha) of the same compound?
Answer: Its value is 38.

Question: What about the “Observed damage (100=total damage to plant, 0=no damage)” value ([2]; Summer season, 100 g ai/ha) of the same compound?
Answer: The value was 28.

Question: And the “Observed damage (100=total damage to plant, 0=no damage)” value ([2]; Summer season, 150 g ai/ha)?
Answer: Its value is 47.

Question: And the “Observed damage (100=total damage to plant, 0=no damage)” value ([3]; Second season, 50 g ai/ha)?
Answer: Its value is 8.

Question: What about the “Observed damage (100=total damage to plant, 0=no damage)” value ([3]; Second season, 75 g ai/ha) of the same compound?
Answer: Its value is 11.

Question: What about the “Observed damage (100=total damage to plant, 0=no damage)” value ([3]; Second season, 100 g ai/ha) of the same compound?
Answer: Its value is 11.

Question: What about the “Observed damage (100=total damage to plant, 0=no damage)” value ([3]; Second season, 150 g ai/ha) of the same compound?
Answer: The value was 14.

Question: And the “Observed damage (100=total damage to plant, 0=no damage)” value ([3]; Summer season, 50 g ai/ha)?
Answer: The value was 18.

Question: What about the “Observed damage (100=total damage to plant, 0=no damage)” value ([3]; Summer season, 75 g ai/ha) of the same compound?
Answer: Its value is 25.

Question: What about the “Observed damage (100=total damage to plant, 0=no damage)” value ([3]; Summer season, 100 g ai/ha) of the same compound?
Answer: The value was 33.

Question: And the “Observed damage (100=total damage to plant, 0=no damage)” value ([3]; Summer season, 150 g ai/ha)?
Answer: The value was 53.

Question: And the “Observed damage (100=total damage to plant, 0=no damage)” value ([4]; Second season, 50 g ai/ha)?
Answer: The value was 13.

Question: And the “Observed damage (100=total damage to plant, 0=no damage)” value ([4]; Second season, 75 g ai/ha)?
Answer: Its value is 21.

Question: What about the “Observed damage (100=total damage to plant, 0=no damage)” value ([4]; Second season, 100 g ai/ha) of the same compound?
Answer: The value was 25.

Question: What about the “Observed damage (100=total damage to plant, 0=no damage)” value ([4]; Second season, 150 g ai/ha) of the same compound?
Answer: Its value is 43.

Question: What about the “Observed damage (100=total damage to plant, 0=no damage)” value ([4]; Summer season, 50 g ai/ha) of the same compound?
Answer: Its value is 18.

Question: And the “Observed damage (100=total damage to plant, 0=no damage)” value ([4]; Summer season, 75 g ai/ha)?
Answer: Its value is 28.

Question: And the “Observed damage (100=total damage to plant, 0=no damage)” value ([4]; Summer season, 100 g ai/ha)?
Answer: Its value is 25.

Question: And the “Observed damage (100=total damage to plant, 0=no damage)” value ([4]; Summer season, 150 g ai/ha)?
Answer: Its value is 30.

Question: What about the “Observed damage (100=total damage to plant, 0=no damage)” value ([5]; Second season, 50 g ai/ha) of the same compound?
Answer: Its value is 0.

Question: What about the “Observed damage (100=total damage to plant, 0=no damage)” value ([5]; Second season, 75 g ai/ha) of the same compound?
Answer: The value was 0.

Question: And the “Observed damage (100=total damage to plant, 0=no damage)” value ([5]; Second season, 100 g ai/ha)?
Answer: Its value is 0.

Question: And the “Observed damage (100=total damage to plant, 0=no damage)” value ([5]; Second season, 150 g ai/ha)?
Answer: The value was 0.

Question: What about the “Observed damage (100=total damage to plant, 0=no damage)” value ([5]; Summer season, 50 g ai/ha) of the same compound?
Answer: Its value is 0.

Question: And the “Observed damage (100=total damage to plant, 0=no damage)” value ([5]; Summer season, 75 g ai/ha)?
Answer: Its value is 0.

Question: And the “Observed damage (100=total damage to plant, 0=no damage)” value ([5]; Summer season, 100 g ai/ha)?
Answer: Its value is 0.

Question: What about the “Observed damage (100=total damage to plant, 0=no damage)” value ([5]; Summer season, 150 g ai/ha) of the same compound?
Answer: The value was 0.

Question: And the “Observed damage (100=total damage to plant, 0=no damage)” value ([6]; 50 g ai/ha)?
Answer: Its value is 38.

Question: And the “Observed damage (100=total damage to plant, 0=no damage)” value ([6]; 75 g ai/ha)?
Answer: The value was 58.

Question: And the “Observed damage (100=total damage to plant, 0=no damage)” value ([6]; 100 g ai/ha)?
Answer: Its value is 46.

Question: What about the “Observed damage (100=total damage to plant, 0=no damage)” value ([6]; 150 g ai/ha) of the same compound?
Answer: The value was 52.

Question: What about the “Observed damage (100=total damage to plant, 0=no damage)” value ([7]; 50 g ai/ha) of the same compound?
Answer: Its value is 13.

Question: And the “Observed damage (100=total damage to plant, 0=no damage)” value ([7]; 75 g ai/ha)?
Answer: Its value is 34.

Question: What about the “Observed damage (100=total damage to plant, 0=no damage)” value ([7]; 100 g ai/ha) of the same compound?
Answer: The value was 30.

Question: And the “Observed damage (100=total damage to plant, 0=no damage)” value ([7]; 150 g ai/ha)?
Answer: Its value is 31.

Question: What about the “Observed damage (100=total damage to plant, 0=no damage)” value ([8]; Second season, 50 g ai/ha) of the same compound?
Answer: The value was 44.

Question: And the “Observed damage (100=total damage to plant, 0=no damage)” value ([8]; Second season, 75 g ai/ha)?
Answer: The value was 56.

Question: What about the “Observed damage (100=total damage to plant, 0=no damage)” value ([8]; Second season, 100 g ai/ha) of the same compound?
Answer: Its value is 79.

Question: What about the “Observed damage (100=total damage to plant, 0=no damage)” value ([8]; Second season, 150 g ai/ha) of the same compound?
Answer: The value was 86.

Question: And the “Observed damage (100=total damage to plant, 0=no damage)” value ([8]; Summer season, 50 g ai/ha)?
Answer: The value was 44.

Question: What about the “Observed damage (100=total damage to plant, 0=no damage)” value ([8]; Summer season, 75 g ai/ha) of the same compound?
Answer: Its value is 49.

Question: What about the “Observed damage (100=total damage to plant, 0=no damage)” value ([8]; Summer season, 100 g ai/ha) of the same compound?
Answer: Its value is 60.

Question: What about the “Observed damage (100=total damage to plant, 0=no damage)” value ([8]; Summer season, 150 g ai/ha) of the same compound?
Answer: The value was 83.
